According to PMC12298827, “Subchronic Toxicities of Four Per- and Polyfluoroalkyl Substances (PFASs) by Oral Exposure in Sprague–Dawley Rats” (Toxics, 2025):

Tested on: male and female Sprague–Dawley rats
Assay: 90-day subchronic oral gavage toxicity study
Assay type: in vivo, rat
Conditions: male
Protocol: Subchronic (90-day) studies were performed in accordance with current U.S. EPA’s Toxic Substances Control Act Good Laboratory Practice (GLP) Standards, with the following two general exceptions to the GLP guidelines: Analysis of the dose formulations was conducted according to RTI-approved Standard Operating Procedures, and corn oil (the vehicle) was not characterized (certificate of analysis from the vendor is available in the appendices to the final reports). Male and female Sprague–Dawley rats (five dose levels plus a control, n = 10/sex/dose group, corn oil vehicle dose volume of 3 mL/kg; oral gavage) were used in these studies, and the rats were euthanized on SD 91. The dose levels for PFHI were 0, 12.5, 25, 50, 100, and 200 mg/kg-day. The dose levels for MHFPK were 0, 18.8, 37.5, 75, 150, and 300 mg/kg-day. The dose levels for PFNAC were 0, 0.1, 0.3, 1.0, 3.0, and 10 mg/kg-day for male rats and 0, 0.3, 1.0, 3.0, 10, and 30 mg/kg-day for female rats. For CTFPA, the dose levels were 0, 1.9, 3.8. 7.5, 15, and 30 mg/kg-day for male rats and 0, 6.3, 12.5, 25, 50, and 100 mg/kg-day for female rats. For each PFAS, three batches of dosing solution were prepared. The time between the batch preparation of the dosing solutions ranged between 29 and 39 days. Blood samples were collected from all the rats at termination for serum chemistry, hematology, coagulation, and the analysis of the parent PFAS chemical in the plasma. In vivo data collection and further detail on the endpoints examined postmortem are described below.
The rats were observed twice daily for morbidity and mortality throughout the study period. At least once prior to randomization to test groups and weekly thereafter, the rats were physically examined, and bodyweights were obtained. Feed consumption was quantified weekly starting on SD 1.
Neurotoxicity was evaluated using the functional observational battery (FOB) and measuring locomotor activity (LMA) 2–4 h post dosing on SDs 78–80 and 80–84, respectively. For both the 14- and 90-day studies, an ophthalmologic examination was conducted prior to randomization and near the end of the study, using indirect ophthalmoscopy and slit–lamp biomicroscopy (as needed) after the administration of a mydriatic solution.
Hematology, biochemistry, and coagulation endpoints were measured at the termination of the study. A Siemens Advia 2120i hematology analyzer (Siemens Healthineers, Erlangen, Germany) was used to measure (or calculate) the parameters related to the complete blood count, leukocyte differential count, and reticulocyte count. The hematology parameters are listed and described in Table 2. The prothrombin time […] and activated partial thromboplastin time (APTT) were measured using an Instrumentation Laboratory (Bedford, MA, USA) ACL Elite Pro coagulation analyzer (laser–nephelometric centrifugal method).
At necropsy, the rats were visually examined for external abnormalities and organ weights (absolute and relative to the BW and brain weight), which were recorded (paired organs weighed together). The tissues were preserved in 10% neutral buffered formalin (NBF), except for the ocular tissues, testes, and epididymides, which were preserved in modified Davidson’s fixative and later transferred to 10% NBF. Bone marrow smears were prepared from the femurs, and the slides were air-dried, fixed in methanol, stained, and stored at room temperature for possible future evaluation. The preserved tissues were embedded in paraffin, sectioned, stained with hematoxylin and eosin, and examined by a board-certified veterinary pathologist.
Statistical analysis was performed using Provantis™ Version 10 or greater (Instem LSS, Limited; Stone, Staffordshire, UK). Differences among the treatment groups compared to the control were evaluated using one-way analysis of variance (ANOVA) if the underlying assumptions of a normal distribution (Shapiro–Wilk test) and the homogeneity of the variance (Levene’s test) were satisfied. […]

In the case of `C=CC(=O)OCC(F)(F)C(F)(F)C(F)(F)C(F)(F)C(F)(F)C(F)(F)C(F)(F)C(F)F` [PFNAC, 1H,1H,9H-Perfluorononyl acrylate], the “% Diff, Total Food Consumed” value (1.0 mg/kg-day) is reported as 6.25%, the A/G (1.0 mg/kg-day) is reported as 1.11±0.09 ratio and the ABNEUT (1.0 mg/kg-day) is reported as 2.627±0.787 K/µL. For the same compound, the ABRETi (1.0 mg/kg-day) was 186.29±26.35 10^9/L, the ABSEOS (1.0 mg/kg-day) was 0.097±0.026 K/µL and the ALB (1.0 mg/kg-day) was 3.99 ± 0.25 g/dL. The ALPi (1.0 mg/kg-day) was 327.4±48.9 U/L, the APTT (1.0 mg/kg-day) was 12.70 s and the BUN (1.0 mg/kg-day) was 20.4 ± 2.6 mg/dL. For the same compound, the CHOL (1.0 mg/kg-day) was 62.6 ± 7.6 mg/dL, the GLOB (1.0 mg/kg-day) was 3.59 ± 0.18 g/dL and the GLUC (1.0 mg/kg-day) was 126.1 ± 10.3 mg/dL. For the same compound, the HCT (1.0 mg/kg-day) was 45.42±2.38%, the HGB (1.0 mg/kg-day) was 13.91 ± 0.69 g/dL and the “Kidney Weight” value (1.0 mg/kg-day) was 3.57 g. For the same compound, the “Kidney/Body Weight” value (1.0 mg/kg-day) was 0.61%, the “Kidney/Brain Weight” value (1.0 mg/kg-day) was 164% and the “Liver Weight” value (1.0 mg/kg-day) was 20.59 g. The “Liver/Body Weight” value (1.0 mg/kg-day) was 3.48%, the “Liver/Brain Weight” value (1.0 mg/kg-day) was 949% and the MPV (1.0 mg/kg-day) was 7.90 ± 0.61 fL. For the same compound, the PT (1.0 mg/kg-day) was 15.56 s, the RBC (1.0 mg/kg-day) was 8.519±0.467 M/µL and the “Total BW change” value (1.0 mg/kg-day) was 314.97 g. For the same compound, the “Total Food Consumed” value (1.0 mg/kg-day) was 2357 g, the “% BW Gain” value (3.0 mg/kg-day) was 89.59% and the “% Diff, % BW Gain” value (3.0 mg/kg-day) was -11.27%. For the same compound, the “% Diff, Total BW change” value (3.0 mg/kg-day) was -11.64%, the “% Diff, Total Food Consumed” value (3.0 mg/kg-day) was 7.33% and the A/G (3.0 mg/kg-day) was 1.18±0.10 ratio. For the same compound, the ABNEUT (3.0 mg/kg-day) was 2.351±0.464 K/µL, the ABRETi (3.0 mg/kg-day) was 190.46±33.42 10^9/L and the ABSEOS (3.0 mg/kg-day) was 0.095±0.043 K/µL. The ALB (3.0 mg/kg-day) was 4.10 ± 0.25 g/dL, the ALPi (3.0 mg/kg-day) was 286.4±30.8 U/L and the APTT (3.0 mg/kg-day) was 12.24 s. The BUN (3.0 mg/kg-day) was 22.6 ± 3.6 mg/dL, the CHOL (3.0 mg/kg-day) was 68.5 ± 12.2 mg/dL and the GLOB (3.0 mg/kg-day) was 3.48 ± 0.13 g/dL. The GLUC (3.0 mg/kg-day) was 126.8 ± 13.8 mg/dL, the HCT (3.0 mg/kg-day) was 46.18±2.11% and the HGB (3.0 mg/kg-day) was 14.09 ± 0.70 g/dL. For the same compound, the “Kidney Weight” value (3.0 mg/kg-day) was 3.57 g, the “Kidney/Body Weight” value (3.0 mg/kg-day) was 0.65% and the “Kidney/Brain Weight” value (3.0 mg/kg-day) was 164%. The “Liver Weight” value (3.0 mg/kg-day) was 20.96 g, the “Liver/Body Weight” value (3.0 mg/kg-day) was 3.81% and the “Liver/Brain Weight” value (3.0 mg/kg-day) was 966%. For the same compound, the MPV (3.0 mg/kg-day) was 7.79 ± 0.43 fL, the PT (3.0 mg/kg-day) was 14.98 s and the RBC (3.0 mg/kg-day) was 8.351±0.354 M/µL. The “Total BW change” value (3.0 mg/kg-day) was 266.69 g, the “Total Food Consumed” value (3.0 mg/kg-day) was 2381 g and the “% BW Gain” value (10 mg/kg-day) was 80.97%. For the same compound, the “% Diff, % BW Gain” value (10 mg/kg-day) was -19.80%, the “% Diff, Total BW change” value (10 mg/kg-day) was -20.93% and the “% Diff, Total Food Consumed” value (10 mg/kg-day) was 2.34%. For the same compound, the A/G (10 mg/kg-day) was 1.15±0.10 ratio, the ABNEUT (10 mg/kg-day) was 2.413±0.948 K/µL and the ABRETi (10 mg/kg-day) was 172.74±32.27 10^9/L. It also gave an ABSEOS (10 mg/kg-day) of 0.101±0.025 K/µL, an ALB (10 mg/kg-day) of 3.90 ± 0.20 g/dL and an ALPi (10 mg/kg-day) of 315.8±44.0 U/L. For the same compound, the APTT (10 mg/kg-day) was 12.57 s, the BUN (10 mg/kg-day) was 22.4 ± 2.6 mg/dL and the CHOL (10 mg/kg-day) was 68.0 ± 15.7 mg/dL. The GLOB (10 mg/kg-day) was 3.39 ± 0.19 g/dL, the GLUC (10 mg/kg-day) was 122.6 ± 10.8 mg/dL and the HCT (10 mg/kg-day) was 44.76±2.84%. For the same compound, the HGB (10 mg/kg-day) was 13.84 ± 0.78 g/dL, the “Kidney Weight” value (10 mg/kg-day) was 3.53 g and the “Kidney/Body Weight” value (10 mg/kg-day) was 0.69%. For the same compound, the “Kidney/Brain Weight” value (10 mg/kg-day) was 170%, the “Liver Weight” value (10 mg/kg-day) was 21.12 g and the “Liver/Body Weight” value (10 mg/kg-day) was 4.16%. The “Liver/Brain Weight” value (10 mg/kg-day) was 1016%, the MPV (10 mg/kg-day) was 7.66 ± 0.42 fL and the PT (10 mg/kg-day) was 15.81 s. For the same compound, the RBC (10 mg/kg-day) was 8.118±0.277 M/µL, the “Total BW change” value (10 mg/kg-day) was 238.64 g and the “Total Food Consumed” value (10 mg/kg-day) was 2270 g.
